{"source": "patent US20180153194A1", "about": "“AGENT HAVING ANTI-ICE NUCLEATION ACTIVITY” (THE SCHOOL CORPORATION KANSAI UNIVERSITY, priority 2015, published 2018)", "key": {"[1]": {"test": "Anti-ice nucleation active performance (supercooling acceleration), droplet-freezing method of Vali, silver iodide", "format": "physicochemical", "conditions": "for anti-ice nucleation activity (in words): 2.0 mM aqueous solution; for improvement in anti-ice nucleation activity level of tri-peptide compared to the mono-amino acid: 2.0 mM", "method": "Nine hundred microliters of an aqueous solution was prepared by dissolving silver iodide in ultra-pure water to a silver iodide concentration of 1.0 mg/mL.\n(§1) A blank sample was prepared by mixing 100 μL of ultra-pure water with 900 μL of the aqueous solution in which silver iodide was dissolved.\n(§2) The anti-ice nucleation active performance (supercooling acceleration performance) was measured by using the droplet-freezing method of Vali. More specifically, in accordance with the droplet-freezing method of Vali (FIG. 1), an aluminum film was placed on the copper plate of a cold plate chiller (CoolAce CCA-1000, Tokyo Rikakikai Co., Ltd.), and the film was coated with a silicone oil suspension diluted with acetone and chloroform (a solution of acetone:chloroform=1:2). Then, each sample for evaluation or the blank sample was dropped (10 μL each) on 30 points of the surface, the temperature was decreased at a rate of 1.0° C./min, and the temperature at which 50% of the 30 droplets were frozen was considered to be T50.\nThe droplet-freezing temperature of each sample was referred to as SampleT50, and the droplet-freezing temperature of the blank sample was referred to as BlankT50. Then, the anti-ice nucleation activity level ΔT50 (° C.) was calculated by the following formula:\nΔT50 (° C.)=BlankT50−SampleT50 Formula: […]\n(§3) The results are average values of the results of the test performed three times.\nas §1\nEach sample for evaluation was prepared by mixing 100 μL of the aqueous solutions of Examples 2 and 11 and Comparative Example 10 with 900 μL of the aqueous solution in which silver iodide was dissolved. A blank sample was prepared by mixing 100 μL of ultra-pure water with 900 μL of the aqueous solution in which silver iodide was dissolved.\nas §3"}, "Cooling curve of tofu": {"test": "Cooling curve of tofu", "conditions": "for anti-ice nucleation activity towards tofu (in words): cooling curve compared to Comparative Example 9; for Freezing onset temperature / Temperature at which tofu was completely frozen / Time taken for tofu to be completely frozen: tofu immersed overnight, cooled in freezer at −20° C.", "method": "Silken tofu (1.5 mm (length)×1.5 mm (width)×1.5 mm (height)) that was immersed overnight in the solution of Comparative Example 9 (blank), Example 1 (tyrosine dimer), or Example 2 (tyrosine trimer) was cooled.\nA thermocouple thermometer (Horiba) was inserted in tofu, and the temperature was measured every 20 seconds in a freezer at −20° C. A cooling curve was then obtained based on the relationship between the temperature (° C.) and the cooling time (in seconds) (FIG. 9). Table 5 below and FIG. 9 show the temperature at which the tofu began to freeze (freezing onset temperature), the temperature at which the tofu was completely frozen, and the time taken for the tofu to be completely frozen."}, "Pseudomonas fluorescens": {"tested_on": "Pseudomonas fluorescens", "test": "Effect on different kind of ice nucleation active substance, droplet-freezing method of Vali", "format": "physicochemical", "conditions": "towards Pseudomonas fluorescens in place of silver iodide; average of three tests", "method": "as §2, with “Then, each sample for evaluation or the blank sample was dropped (10 μL each) on 30 points of the surface, the temperature was decreased at a rate of 1.0° C./min, and the temperature at which 50% of the 30 droplets were frozen was considered to be T50.” left out\nThe droplet-freezing temperature of each sample was referred to as SampleT50, and the droplet-freezing temperature of the blank sample was referred to as BlankT50. Then, the anti-ice nucleation activity level ΔT50 (° C.) was calculated by the following formula: […]\nA sample for evaluation of Example 1 was prepared in a manner similar to that described in Test Example 1, except that Pseudomonas fluorescens, which is the Pseudomonas bacterium, was used in place of silver iodide, which is an ice nucleation active substance. The anti-ice nucleation active performance (supercooling acceleration performance) was measured by using a test method similar to that described in Test Example 1. […]"}, "[2]": {"test": "Anti-ice nucleation activity test with respect to biological material (beef liver)", "conditions": "10 μL, final concentration 0.2 mM, dropped on beef liver; blank ultra-pure water", "method": "Ten microliters of an aqueous solution in which the aqueous solution of the anti-ice nucleation activator of Example 2 (tyrosine trimer) was diluted 10-fold with ultra-pure water (final concentration: 0.2 mM) was added dropwise on a beef liver (1 mm (length)×1 mm (width)×1 mm (height)). As a blank sample, ultra-pure water was used.\nThe anti-ice nucleation active performance (supercooling acceleration performance) was measured by using a method similar to the droplet-freezing method of Vali described in Test Example 1. The results are average values of the results of the test performed three times."}, "[3]": {"test": "State of tofu after freezing and thawing, and breaking load of tofu", "conditions": "frozen in liquid nitrogen", "method": "Silken tofu (1.5 mm (length)×1.5 mm (width)×1.5 mm (height)) was immersed in the solution of Comparative Example 9 (water, blank) or Example 1 (tyrosine dimer) overnight. Thereafter, the tofu was taken out of the solution, the moisture was wiped off, and then the tofu was wrapped with wrap (plastic wrap). The tofu wrapped in plastic wrap was immersed in liquid nitrogen to be quickly frozen. The frozen tofu was then slowly thawed (warmed at 25° C.) or quickly thawed (warmed at 60° C.). […] The breaking load (N) of tofu was measured by a creep meter (RE2-33005C, Yamaden, Co., Ltd.)."}, "[4]": {"conditions": "ΔT50 = BlankT50 − SampleT50, 2.0 mM aqueous solution (100 μL) mixed with 900 μL silver iodide 1.0 mg/mL, average of three tests"}}, "data": [{"compound": "N[C@@H](Cc1ccc(O)cc1)C(=O)O", "note": "[Comparative Example 1, tyrosine, reference compound]", "values": [{"measurement": "anti-ice nucleation activity (in words)", "setting": "[1]; silver iodide", "value": "no anti-ice nucleation activity"}, {"measurement": "Anti-ice nucleation activity level", "setting": "[1]; [4]", "value": 0.3, "unit": "°C"}]}, {"compound": "C[C@@H](O)[C@H](N)C(=O)O", "note": "[Comparative Example 8, threonine, reference compound]", "values": [{"measurement": "Anti-ice nucleation activity level", "setting": "[1]; [4]", "value": 0.1, "unit": "°C"}]}, {"compound": "Thr-Thr-Thr [Comparative Example 7, reference compound]", "values": [{"measurement": "improvement in anti-ice nucleation activity level of tri-peptide compared to the mono-amino acid", "setting": "[1]; silver iodide", "value": "no improvement in the anti-ice nucleation activity level"}, {"measurement": "Anti-ice nucleation activity level", "setting": "[1]; [4]", "value": "−0.3", "unit": "°C"}]}, {"compound": "Tyr-Tyr-Tyr-Tyr (YYYY; printed: Tyr-Tyr-Tyr-Tyr) [Example 3]", "values": [{"measurement": "Anti-ice nucleation activity level", "setting": "[1]; [4]", "value": 1.8, "unit": "°C"}]}, {"compound": "Tyr-Tyr-Tyr [Example 5]", "values": [{"measurement": "Anti-ice nucleation activity level", "setting": "[1]; tyrosine trimer concentration 0.1 mM, silver iodide 1.0 mg/mL", "value": 2.3, "unit": "°C"}]}, {"compound": "Tyr-Tyr-Tyr [Example 7]", "values": [{"measurement": "Anti-ice nucleation activity level", "setting": "[1]; tyrosine trimer concentration 0.5 mM, silver iodide 1.0 mg/mL", "value": 1.8, "unit": "°C"}]}, {"compound": "Tyr-Tyr-Tyr [Example 10]", "values": [{"measurement": "Anti-ice nucleation activity level", "setting": "[1]; tyrosine trimer concentration 10.0 mM, silver iodide 1.0 mg/mL", "value": 9.2, "unit": "°C"}]}, {"compound": "Tyr-Tyr-Tyr [Example 2]", "values": [{"measurement": "anti-ice nucleation activity towards tofu (in words)", "setting": "Cooling curve of tofu", "value": "exert anti-ice nucleation activity towards tofu"}, {"measurement": "Freezing onset temperature", "setting": "Cooling curve of tofu", "value": "−0.8", "unit": "° ° C."}, {"measurement": "Temperature at which tofu was completely frozen", "setting": "Cooling curve of tofu", "value": "−7.8", "unit": "° ° C."}, {"measurement": "Time taken for tofu to be completely frozen", "setting": "Cooling curve of tofu", "value": 1080, "unit": "s"}, {"measurement": "anti-ice nucleation active performance", "setting": "Pseudomonas fluorescens", "value": 1.9, "unit": "°C"}, {"measurement": "Anti-ice nucleation activity level", "setting": "[2]", "value": 0.6, "unit": "°C"}, {"measurement": "anti-ice nucleation activity (in words)", "setting": "[1]; silver iodide", "value": "highest anti-ice nucleation activity level"}, {"measurement": "improvement in anti-ice nucleation activity level of tri-peptide compared to the mono-amino acid", "setting": "[1]; silver iodide", "value": "significantly improved anti-ice nucleation activity level"}, {"measurement": "anti-ice nucleation active performance (in words)", "setting": "[1]; all concentration levels within 0.1 to 10.0 mM, silver iodide", "value": "exhibited anti-ice nucleation active performance"}, {"measurement": "Anti-ice nucleation activity level", "setting": "[1]; [4]", "value": 10.1, "unit": "°C"}]}, {"compound": "N[C@@H](Cc1ccccc1)C(=O)O", "note": "[Comparative Example 4, phenylalanine, reference compound]", "values": [{"measurement": "Anti-ice nucleation activity level", "setting": "[1]; [4]", "value": 0.5, "unit": "°C"}]}, {"compound": "Tyr-Tyr-Tyr [Example 9]", "values": [{"measurement": "Anti-ice nucleation activity level", "setting": "[1]; tyrosine trimer concentration 5.0 mM, silver iodide 1.0 mg/mL", "value": 9.2, "unit": "°C"}]}, {"compound": "N[C@@H](CO)C(=O)O", "note": "[Comparative Example 6, serine, reference compound]", "values": [{"measurement": "Anti-ice nucleation activity level", "setting": "[1]; [4]", "value": 0.1, "unit": "°C"}]}, {"compound": "Phe-Phe-Phe [Comparative Example 3, reference compound]", "values": [{"measurement": "improvement in anti-ice nucleation activity level of tri-peptide compared to the mono-amino acid", "setting": "[1]; silver iodide", "value": "no improvement in the anti-ice nucleation activity level"}, {"measurement": "Anti-ice nucleation activity level", "setting": "[1]; [4]", "value": 0.3, "unit": "°C"}]}, {"compound": "Tyr-Tyr-Tyr [Example 6]", "values": [{"measurement": "Anti-ice nucleation activity level", "setting": "[1]; tyrosine trimer concentration 0.2 mM, silver iodide 1.0 mg/mL", "value": 3.7, "unit": "°C"}]}, {"compound": "Tyr-Tyr-Tyr [Example 8]", "values": [{"measurement": "Anti-ice nucleation activity level", "setting": "[1]; tyrosine trimer concentration 1.0 mM, silver iodide 1.0 mg/mL", "value": 5.7, "unit": "°C"}]}, {"compound": "Ser-Ser-Ser [Comparative Example 5, reference compound]", "values": [{"measurement": "improvement in anti-ice nucleation activity level of tri-peptide compared to the mono-amino acid", "setting": "[1]; silver iodide", "value": "no improvement in the anti-ice nucleation activity level"}, {"measurement": "Anti-ice nucleation activity level", "setting": "[1]; [4]", "value": 0.4, "unit": "°C"}]}, {"compound": "Tyr-Tyr-Tyr-Tyr-Tyr (YYYYY; printed: Tyr-Tyr-Tyr-Tyr-Tyr) [Example 4]", "values": [{"measurement": "Anti-ice nucleation activity level", "setting": "[1]; [4]", "value": 1.7, "unit": "°C"}]}, {"compound": "Tyr-Tyr [Example 1]", "values": [{"measurement": "cavities in the tofu after thawing", "setting": "[3]; slow or quick thawing", "value": "no cavities were formed"}, {"measurement": "breaking load of the tofu", "setting": "[3]; tofu immersed overnight, slow thawing (25° C.) and quick thawing (60° C.), compared to Comparative Example 9 (water)", "value": "low"}, {"measurement": "anti-ice nucleation activity towards tofu (in words)", "setting": "Cooling curve of tofu", "value": "exert anti-ice nucleation activity towards tofu"}, {"measurement": "Freezing onset temperature", "setting": "Cooling curve of tofu", "value": "−1.2", "unit": "° ° C."}, {"measurement": "Temperature at which tofu was completely frozen", "setting": "Cooling curve of tofu", "value": "−6.8", "unit": "° ° C."}, {"measurement": "Time taken for tofu to be completely frozen", "setting": "Cooling curve of tofu", "value": 1120, "unit": "s"}, {"measurement": "Anti-ice nucleation activity level", "setting": "[1]; [4]", "value": 2.6, "unit": "°C"}]}]}
